Source: ChEMBL document CHEMBL1201862, “PubChem BioAssay data set” (2004)
The source made the active and inactive calls.

Experiments:
[1] = inhibitors of firefly luciferase expression or activity, dose response, H4 neuroglioma cells, luminescence (AID 1990); format: functional, cell-based
[2] = luciferase reporter signal reduction – luminescence, H4-C neuroglioblastoma cells, dose response (AID 2458); format: functional, cell-based;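 note: H4 neuroglioblastoma cells stably carrying a luciferase reporter gene fusion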
[3] = cells; format: functional, cell-based
[4] = Luminescence Cell-Based Dose Response HTS to Identify Inhibitors of 5'UTR Stem-Loop Driven Prion Protein mRNA Translation in H4 Neuroglioblastoma Cells. [Related pubchem assays: 1827 (Project Summary), 1813 (Primary HTS)]; format: functional
[5] = inhibitors of SNCA 5'UTR-driven reporter translation, confirmation, H4 neuroglioma cells, luminescence (AID 1988); format: functional, cell-based
[6] = inhibitors of SNCA 5'UTR-driven translation, confirmation, luminescence, H4 neuroglioblastoma cells, dose confirmation (AID 2454); format: functional, cell-based;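 note: H4 neuroglioblastoma cells carrying an alpha-synuclein 5'UTR luciferase reporter; potency for inhibition of the luciferase signal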
[7] = molecular target: Photoreceptor-specific nuclear receptor (Homo sapiens, UniProt Q9Y5X4); format: functional, cell-based;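 note: CHO-S cells with Gal4-NCOR and VP16-NR2E3 two-hybrid luciferase reporter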
Photoreceptor-specific nuclear receptor, sequence (Q9Y5X4 whole entry, the tested form may be a part): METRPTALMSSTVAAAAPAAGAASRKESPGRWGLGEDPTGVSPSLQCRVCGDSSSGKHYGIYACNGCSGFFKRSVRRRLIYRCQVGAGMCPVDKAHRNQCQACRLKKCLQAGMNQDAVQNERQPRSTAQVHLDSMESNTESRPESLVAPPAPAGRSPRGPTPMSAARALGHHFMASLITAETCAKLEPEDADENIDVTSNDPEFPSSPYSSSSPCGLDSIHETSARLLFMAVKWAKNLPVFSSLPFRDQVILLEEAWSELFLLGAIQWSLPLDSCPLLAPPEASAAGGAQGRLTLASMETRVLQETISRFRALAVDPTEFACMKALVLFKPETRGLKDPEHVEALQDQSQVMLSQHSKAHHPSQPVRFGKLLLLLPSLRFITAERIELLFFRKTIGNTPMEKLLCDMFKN

[8] = molecular target: Sphingosine 1-phosphate receptor 2 (Homo sapiens, UniProt O95136); assay: Dose Response Cell Based Assay for Agonists of the S1P2 Receptor of Purchased Analogues. [Related pubchem assays: 729, 843, 854, 736 ]; format: functional
Sphingosine 1-phosphate receptor 2, sequence (O95136 whole entry): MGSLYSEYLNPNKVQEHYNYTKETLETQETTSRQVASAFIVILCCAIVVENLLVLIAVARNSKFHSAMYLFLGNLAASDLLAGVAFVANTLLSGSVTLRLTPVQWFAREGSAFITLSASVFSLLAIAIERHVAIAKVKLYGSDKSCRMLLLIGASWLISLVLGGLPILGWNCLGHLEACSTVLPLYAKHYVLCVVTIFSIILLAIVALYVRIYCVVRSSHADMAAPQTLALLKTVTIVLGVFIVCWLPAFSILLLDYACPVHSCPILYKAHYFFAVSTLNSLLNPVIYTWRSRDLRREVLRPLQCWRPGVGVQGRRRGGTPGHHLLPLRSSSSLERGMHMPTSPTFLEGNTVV

[9] = molecular target: Epstein-Barr nuclear antigen 1 (Epstein-Barr virus (strain B95-8) (HHV-4) (Human herpesvirus 4), UniProt P03211); assay: EBNA-1 inhibitors, dose response, biochemical, fluorescence polarization, 1536-well (AID 2381); set-up: species or system human gammaherpesvirus 4;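 note: fluorescence polarization of a Cy5 DNA probe bound by EBNA-1 protein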
Epstein-Barr nuclear antigen 1, sequence (P03211 whole entry): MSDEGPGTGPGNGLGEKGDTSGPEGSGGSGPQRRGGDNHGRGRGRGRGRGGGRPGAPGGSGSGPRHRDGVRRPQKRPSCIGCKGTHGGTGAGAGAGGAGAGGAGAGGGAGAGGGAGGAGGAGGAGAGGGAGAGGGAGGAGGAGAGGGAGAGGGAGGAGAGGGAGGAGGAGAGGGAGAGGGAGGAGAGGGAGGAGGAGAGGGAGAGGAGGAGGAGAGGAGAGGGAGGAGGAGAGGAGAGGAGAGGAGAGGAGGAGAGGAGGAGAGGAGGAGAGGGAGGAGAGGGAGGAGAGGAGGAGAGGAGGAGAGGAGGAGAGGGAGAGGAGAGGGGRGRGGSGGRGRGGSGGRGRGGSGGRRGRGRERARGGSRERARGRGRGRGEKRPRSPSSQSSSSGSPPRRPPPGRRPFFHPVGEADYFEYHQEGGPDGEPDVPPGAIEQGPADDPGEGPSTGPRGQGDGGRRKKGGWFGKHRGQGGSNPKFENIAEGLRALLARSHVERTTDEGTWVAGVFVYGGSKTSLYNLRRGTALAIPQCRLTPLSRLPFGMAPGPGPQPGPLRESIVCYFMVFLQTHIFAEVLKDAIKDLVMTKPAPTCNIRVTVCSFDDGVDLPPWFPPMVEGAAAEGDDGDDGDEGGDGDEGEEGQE

[10] = molecular target: Lytic switch protein BZLF1 (Epstein-Barr virus (strain B95-8) (HHV-4) (Human herpesvirus 4), UniProt P03206); assay: EBV ZTA inhibitors, dose response, counter-screen for EBNA-1 inhibitor project, biochemical, fluorescence polarization, Epstein-Barr virus, 1536-well (AID 2377); set-up: species or system human gammaherpesvirus 4;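 note: fluorescence polarization of Cy5-labelled ZRE DNA probe bound by purified Zta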
Lytic switch protein BZLF1, sequence (P03206 whole entry): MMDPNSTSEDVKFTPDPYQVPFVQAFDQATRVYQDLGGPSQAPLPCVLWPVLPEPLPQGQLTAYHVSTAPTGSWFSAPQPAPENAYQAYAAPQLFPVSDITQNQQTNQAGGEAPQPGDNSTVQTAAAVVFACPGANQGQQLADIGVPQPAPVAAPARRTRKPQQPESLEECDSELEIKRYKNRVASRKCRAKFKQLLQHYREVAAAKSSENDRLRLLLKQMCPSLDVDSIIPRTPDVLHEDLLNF

[11] = test system: HeLa; assay: Cytotoxicity counterscreen assay for transcriptional activators of heat shock protein 70 (Hsp70). [Related pubchem assays: 1203, 1252 ]; format: functional; conditions: Homo sapiens;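 note: cells exposed to compound for 16 hours before readout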
[12] = molecular target: Paired box protein Pax-8 (Homo sapiens, UniProt Q06710); assay: inhibitors of PAX8-driven TPO luciferase reporter, dose response, RMG-I cells, cherry-pick (AID 687027); format: functional, cell-based;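 note: luciferase reporter driven by Pax8 target thyroperoxidase promoter measured by SteadyGlo luminescence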
Paired box protein Pax-8, sequence (Q06710 whole entry): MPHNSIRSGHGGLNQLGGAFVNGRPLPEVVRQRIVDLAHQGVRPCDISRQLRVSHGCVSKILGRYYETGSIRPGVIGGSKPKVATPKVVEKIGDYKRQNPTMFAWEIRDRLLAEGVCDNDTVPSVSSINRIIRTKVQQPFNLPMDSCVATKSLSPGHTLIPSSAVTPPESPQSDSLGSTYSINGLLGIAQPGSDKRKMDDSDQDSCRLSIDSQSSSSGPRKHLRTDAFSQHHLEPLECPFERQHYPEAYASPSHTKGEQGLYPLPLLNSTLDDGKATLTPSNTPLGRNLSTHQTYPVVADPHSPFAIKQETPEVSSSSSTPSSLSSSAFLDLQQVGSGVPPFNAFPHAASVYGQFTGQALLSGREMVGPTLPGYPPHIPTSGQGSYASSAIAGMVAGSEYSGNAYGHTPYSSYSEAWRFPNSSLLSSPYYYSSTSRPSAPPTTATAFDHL

[13] = inhibitors of CMV-promoter luciferase reporter, dose response, counter-screen for Pax8 inhibitor project, cell-based, HEK293, luminescence, dry powder (AID 743020); format: functional
[14] = molecular target: T1, E3 ubiquitin-protein ligase XIAP (Homo sapiens, UniProt P98170); assay: Counter Screen using XIAP-Bir3 for Chemical Antagonists of Bir1/2 domains of IAP-family anti-apoptotic proteins. [Related pubchem assays (depositor defined):AID1018, AID1449, AID1514, AID1638, AID1749, AID1750, AID488957, AID488963]
T1 sequence (P98170 whole entry): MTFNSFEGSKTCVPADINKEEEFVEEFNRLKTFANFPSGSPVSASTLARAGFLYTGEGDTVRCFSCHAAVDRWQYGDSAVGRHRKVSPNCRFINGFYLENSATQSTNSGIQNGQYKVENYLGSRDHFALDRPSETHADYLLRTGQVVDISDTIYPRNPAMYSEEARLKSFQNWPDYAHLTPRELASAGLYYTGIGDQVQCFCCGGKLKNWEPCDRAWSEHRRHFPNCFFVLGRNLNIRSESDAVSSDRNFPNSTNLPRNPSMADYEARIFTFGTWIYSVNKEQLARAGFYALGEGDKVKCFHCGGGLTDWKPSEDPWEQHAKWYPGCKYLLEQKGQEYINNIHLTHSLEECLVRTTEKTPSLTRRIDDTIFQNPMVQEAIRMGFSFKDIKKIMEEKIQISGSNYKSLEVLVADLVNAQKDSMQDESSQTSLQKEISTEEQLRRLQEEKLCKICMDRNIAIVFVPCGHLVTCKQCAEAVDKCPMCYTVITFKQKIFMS

[15] = molecular target: T1, E3 ubiquitin-protein ligase XIAP; assay: XIAP antagonists, biochemical, IAP family, fluorescence polarization (AID 1018); format: functional
[16] = molecular target: Mucolipin-3 (Homo sapiens, UniProt Q8TDD5); assay: Dose response cell-based high-throughput screening assay for agonists of the transient receptor potential channel ML3 (TRPML3). [Related pubchem assays: 1526, 1424, 1448 ]; format: functional
Mucolipin-3, sequence (Q8TDD5 whole entry): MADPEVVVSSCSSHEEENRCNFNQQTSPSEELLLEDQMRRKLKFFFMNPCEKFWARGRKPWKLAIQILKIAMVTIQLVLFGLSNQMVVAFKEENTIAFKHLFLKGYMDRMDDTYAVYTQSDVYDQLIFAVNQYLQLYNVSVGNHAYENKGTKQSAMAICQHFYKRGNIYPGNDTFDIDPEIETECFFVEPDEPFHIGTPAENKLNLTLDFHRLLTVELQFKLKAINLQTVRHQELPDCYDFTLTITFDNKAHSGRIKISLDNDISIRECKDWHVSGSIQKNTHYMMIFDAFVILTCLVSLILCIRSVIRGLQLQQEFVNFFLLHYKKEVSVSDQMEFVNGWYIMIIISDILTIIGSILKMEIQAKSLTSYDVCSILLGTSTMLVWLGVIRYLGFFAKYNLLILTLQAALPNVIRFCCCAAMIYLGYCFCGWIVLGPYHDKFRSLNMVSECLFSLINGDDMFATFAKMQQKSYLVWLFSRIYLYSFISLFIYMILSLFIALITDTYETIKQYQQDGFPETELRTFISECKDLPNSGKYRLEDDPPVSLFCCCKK

[17] = molecular target: Ion channel NompC (Danio rerio, UniProt Q7T1G6); assay: Fluorescence counterscreen assay for TRPML3 agonists: dose response cell-based high-throughput screening assay to identify agonists of the transient receptor potential channel N1 (TRPN1). [Related pubchem assays: 1526, 1424, 1448 ]; format: functional
Ion channel NompC, sequence (Q7T1G6 whole entry): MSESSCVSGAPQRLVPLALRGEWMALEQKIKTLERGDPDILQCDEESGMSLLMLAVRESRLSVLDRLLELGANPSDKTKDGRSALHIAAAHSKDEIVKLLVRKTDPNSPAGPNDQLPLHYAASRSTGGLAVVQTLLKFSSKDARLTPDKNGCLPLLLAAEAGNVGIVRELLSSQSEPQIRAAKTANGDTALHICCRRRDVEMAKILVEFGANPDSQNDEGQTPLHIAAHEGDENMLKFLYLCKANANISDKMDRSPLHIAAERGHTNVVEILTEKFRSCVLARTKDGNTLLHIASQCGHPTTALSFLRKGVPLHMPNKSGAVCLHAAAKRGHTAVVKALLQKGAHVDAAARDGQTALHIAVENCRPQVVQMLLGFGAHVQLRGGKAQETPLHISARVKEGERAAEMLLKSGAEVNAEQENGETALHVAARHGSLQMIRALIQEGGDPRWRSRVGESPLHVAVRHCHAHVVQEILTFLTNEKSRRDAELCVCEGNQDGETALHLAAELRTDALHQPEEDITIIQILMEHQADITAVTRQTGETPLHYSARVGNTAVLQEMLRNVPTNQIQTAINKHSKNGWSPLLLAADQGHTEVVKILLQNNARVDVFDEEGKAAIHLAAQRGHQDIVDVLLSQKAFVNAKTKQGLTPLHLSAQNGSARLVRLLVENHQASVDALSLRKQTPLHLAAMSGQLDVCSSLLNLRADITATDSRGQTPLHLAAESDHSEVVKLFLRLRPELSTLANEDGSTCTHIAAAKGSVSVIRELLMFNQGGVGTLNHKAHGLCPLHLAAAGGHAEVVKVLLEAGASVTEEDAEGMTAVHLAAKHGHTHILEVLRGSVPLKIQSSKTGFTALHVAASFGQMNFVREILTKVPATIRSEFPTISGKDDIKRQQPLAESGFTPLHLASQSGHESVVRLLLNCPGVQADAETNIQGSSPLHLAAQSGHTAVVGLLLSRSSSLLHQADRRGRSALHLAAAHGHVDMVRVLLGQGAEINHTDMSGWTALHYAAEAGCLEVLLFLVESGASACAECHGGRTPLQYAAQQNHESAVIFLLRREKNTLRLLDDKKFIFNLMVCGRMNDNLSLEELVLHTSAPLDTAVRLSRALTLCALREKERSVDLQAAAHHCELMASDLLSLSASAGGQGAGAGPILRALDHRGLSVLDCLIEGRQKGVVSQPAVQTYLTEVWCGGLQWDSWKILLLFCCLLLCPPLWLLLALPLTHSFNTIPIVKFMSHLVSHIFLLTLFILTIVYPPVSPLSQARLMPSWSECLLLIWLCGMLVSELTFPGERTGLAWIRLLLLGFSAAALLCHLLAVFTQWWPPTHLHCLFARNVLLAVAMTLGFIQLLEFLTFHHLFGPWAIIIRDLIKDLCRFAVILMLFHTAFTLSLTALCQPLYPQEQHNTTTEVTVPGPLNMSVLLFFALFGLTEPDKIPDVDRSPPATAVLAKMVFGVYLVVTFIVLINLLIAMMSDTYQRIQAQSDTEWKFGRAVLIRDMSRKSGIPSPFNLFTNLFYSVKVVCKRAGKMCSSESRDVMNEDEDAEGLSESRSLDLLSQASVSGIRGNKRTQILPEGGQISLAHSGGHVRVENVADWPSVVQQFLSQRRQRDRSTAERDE

In the case of `Cc1ccsc1C(=O)OCC(=O)c1cc(C)n(CC2CCCO2)c1C` (configuration not stated), the EC50 [1] is reported as 8.04 µM (active), the EC50 [2] is reported as 0.9 µM (active) and the EC50 [3] is reported as 3.3 µM (active). For the same compound, the EC50 [4] was 0.325 µM (active), the EC50 [5] was < 0.1 µM (active) and the EC50 [6] was 0.322 µM (active). The IC50 [7] was 6.9 µM (active).

In the case of `COc1ccc(C(N)=O)c(OCC(=O)c2cc(C)n(Cc3ccccc3)c2C)c1`, the EC50 [8] is reported as > 30 µM (not active).

In the case of `COc1ccc(CN=C(S)N2CCN(S(=O)(=O)c3cccc(F)c3)CC2)cc1`, the IC50 [9] is reported as 5.94 µM (active) and the IC50 [10] is reported as > 111 µM (not active).

With `CCCC(=O)N1CCN(c2ccc(NC(=O)c3ccc([N+](=O)[O-])o3)cc2)CC1` the CC50 [11] was 6.29 µM (active), the AC50 [12] was 5.17 µM (active) and the AC50 [13] was 19.9 µM (active).

For `COc1ccc(C(=O)C2=C(O)C(=O)N(CC3CCCO3)C2c2cccc(OC)c2)cc1` (configuration not stated), the IC50 [14] was > 100 µM (inactive) and the IC50 [15] was > 100 µM (not active).

With `CN(C1CCCCC1)S(=O)(=O)c1cccc(C(=O)OCC(=O)NC2CCCc3ccccc32)c1` (configuration not stated) the EC50 [16] was 2.86 µM (active) and the EC50 [17] was > 29.9 µM (not active).
